Measurements from the supplement of paper PMC10307832.

Key:
Test in all cases: relative viability (nuclei count vs DMSO), 5 days (fraction); higher = more cells survive
[1] = compound: C1/C(=C\C2=CC=CS2)/C(=O)/C(=C/C3=CC=CS3)/C1
Procedure, shortened: (§1)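 A plate was accepted only when its control CV was below 25% and the cells had doubled at least once. Viability is defined from nuclear counts as treated wells divided by vehicle wells, with the median taken across plates. That median covers lung cancer cell lines grown in 1536-well plates, dosed by pinning at five √10-spaced library-drug concentrations, and counted in MetaXpress from 4× Hoechst images after 5 days.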

TPCA-1 = compound: C1=CC(=CC=C1C2=CC(=C(S2)NC(=O)N)C(=O)N)F [TPCA-1]
Procedure, shortened: as §1

Lestaurtinib = compound: C[C@]12O[C@H](C[C@]1(O)CO)n1c3ccccc3c3c4c(c5c6ccccc6n2c5c31)CNC4=O [Lestaurtinib]
Procedure, shortened: as §1

Cell Line	relative viability ([1]; 0.2 µM)	relative viability ([1]; 0.6325 µM)	relative viability ([1]; 2 µM)	relative viability ([1]; 6.325 µM)	relative viability ([1]; 20 µM)	relative viability (TPCA-1; 0.04 µM)	relative viability (TPCA-1; 0.1265 µM)	relative viability (TPCA-1; 0.4 µM)	relative viability (TPCA-1; 1.265 µM)	relative viability (TPCA-1; 4 µM)	relative viability (Lestaurtinib; 0.005 µM)	relative viability (Lestaurtinib; 0.01581 µM)	relative viability (Lestaurtinib; 0.05 µM)	relative viability (Lestaurtinib; 0.1581 µM)	relative viability (Lestaurtinib; 0.5 µM)
IA-LM	1.04	1.01	0.905	0.91	0.94	1.1	0.923	0.963	0.812	0.903	1.11	1.42	1.28	1.21	0.557
LC-2-ad	1.02	1.04	1.07	0.868	0.958	1.09	0.902	1.01	0.901	0.377	1.01	1.15	0.757	0.54	0.301
LCLC-97TM1	1.07	0.966	1.2	0.868	0.852	1.17	0.886	0.994	0.613	0.538	0.702	1.15	0.739	0.398	0.267
LCLC-103H	1.04	1.02	1.09	0.87	0.986	1.1	0.933	1.06	0.941	1.02	1.1	1.08	0.937	0.693	0.519
LK-2	1.02	1	1.1	1.06	0.966	1.24	0.8	0.993	0.982	0.503	1.24	1.06	0.872	0.651	0.279
LOU-NH91	1.02	0.991	1.09	0.874	1.02	1.05	0.943	0.981	0.878	0.851	0.946	1	0.865	0.65	0.423
LU99A	1	0.966	1.02	0.788	0.892	1.1	0.909	0.989	0.919	0.437	0.892	0.893	0.625	0.489	0.251
LXF-289	1.03	1.03	1.02	0.902	0.991	1	0.934	0.954	0.953	0.69	0.963	1.02	0.93	0.901	0.315
NCI-H23	1.13	1.21	1.11	0.798	0.962	1.1	0.846	0.956	0.782	0.231	0.999	1.1	0.817	0.594	0.378
NCI-H322M	0.928	0.924	1.01	0.804	0.912	1.11	0.885	1.03	1.13	0.704	0.904	0.924	0.497	0.663	0.624
NCI-H358	1.09	0.915	0.963	0.754	0.933	1.34	0.832	0.984	0.767	0.401	0.839	0.748	0.493	0.397	0.207
